From patent publication US20140039044A1, “Hydroxylated Polymethoxyflavone Compositions” (WLLGEN, INC., priority 2006, published 2014)

Experiments:
Type in all cases: cell-based, mouse
[1] = test system: LPS-induced NFκB promoter activities in RAW264.7 macrophages; assay: NFκB-dependent luciferase reporter assay; conditions: FIG. 5
Experimental: RAW264.7 cells were seeded in […]. When the cells were confluent, the medium was replaced with serum-free Opti-MEM (Gibco-BRL). Then the cells were transfected with the p-NFκB-Luc plasmid reporter gene using LIPOFECTAMINE™ reagent (Invitrogen). After 6 h incubation, the medium was replaced with complete medium. After 24 h, the cells were trypsinized and equal numbers of cells were plated in 24 well tissue culture plates for 6 h. Cells were then treated with LPS (100 ng/ml) alone or with PMFs (10 or 30 μM) for 12 h. Each well was wash twice with cold PBS and harvested in 100 μl serum-free DMEM, and the luciferase activity was assayed by LUCILITE luciferase reporter gene assay kit (PerkinElamer). Luminescence was measured in a Luminescence counter (Molecular Devices, LMaxII) in single photon counting mode for 2 sec/well, following 5 min adaptation in the dark.
To confirm whether selected PMFs inhibited NFκB binding activity in LPS-induced macrophages, assessment of luciferase expression in cells transiently transfected with NFκB-dependent luciferase reporter plasmid was assessed according to the procedures described above in Section 8.4.

[2] = test system: COX-2; assay: Western blot of LPS-induced COX-2 protein expression; conditions: LPS-activated macrophages, 30 μM, 24 h, FIG. 4
Experimental: (§1) Proteins were isolated from cells after treatment with test compounds for 24 h. Total protein was extracted by adding 200 μL of gold lysis buffer (50 mM Tris-HCl, pH 7.4; 1 mM NaF; 150 mM NaCl; 1 mM EGTA; 1 mM phenylmethanesulfonyl fluoride; 1% NP-40; and 10 μg/mL leupeptin) to the cell pellets, which were kept on ice for 30 minutes, followed by centrifugation at 10,000×g for 30 min at 4° C. The protein concentrations of the cytosolic fraction (supernatant) were measured by BIO-RAD Protein Assay (Bio-Rad Laboratories, Munich, Germany). Samples containing 50 μg of protein were electrophoretically separated by SDS-PAGE and transferred to PVDF membrane (Millipore Corp., Bedford, Mass.) using standard procedures. See Burnette (1981) Anal. Biochem. 112:195-203. […]
(§2) Western blot analysis of inhibition of LPS-induced iNOS and COX-2 protein expression by PMFs was analyzed, following procedures described above. […] Equal amounts of total proteins (50 μg) were subjected to 10% SDS-PAGE, and expression of iNOS, COX-2 and β-actin protein was detected by Western blot using specific antibodies.

[3] = test system: COX-2 mRNA; assay: LPS-induced COX-2 mRNA expression by real-time PCR; conditions: RAW264.7 macrophages, 100 ng/mL LPS, 20 μM, relative to G3PDH, FIG. 6
Experimental: Bacterial lipopolysaccharide (LPS)-induced COX-2 expression was monitored in RAW264.7 macrophages, as previously described. Briefly, COX-2 expression was determined in untreated cells and cells treated with 100 ng/mL LPS either in the absence or the presence of 20 μM 5-hydroxy-3,6,7,8,3′,4′-hexamethoxyflavone. COX-2 mRNA levels were determined by real-time PCR where the values obtained were relative to expression of glyceraldehyde-3-phosphate dehydrogenase (G3PDH).

[4] = test system: iNOS; assay: Western blot of LPS-induced iNOS protein expression; conditions: LPS-activated macrophages, 30 μM, 24 h, FIG. 4
Experimental: as §1, §2

COc1c(OC)c(OC)c2c(=O)cc(-c3ccc(O)c(O)c3)oc2c1OC [H, 3′,4′-dihydroxy-5,6,7,8-tetramethoxyflavone]
Rank of inhibitory potency on LPS-induced NFκB transcriptional activity ([1]; RAW264.7, 30 μM): greatest inhibitory potency of PMFs tested
Inhibition of LPS-induced NFκB transcriptional activity, in words ([1]; RAW264.7, LPS 100 ng/ml, PMF 10 or 30 μM, 12 h): inhibited LPS-induced NFκB transcriptional activity in a concentration-dependent manner
Inhibition of COX-2 expression (Western blot), in words [2]: most potent inhibitor of COX-2 expression

COc1ccc(-c2oc3c(OC)c(OC)c(OC)c(O)c3c(=O)c2OC)cc1OC [Compound C, 5-hydroxy-3,6,7,8,3′,4′-hexamethoxyflavone]
Inhibition of LPS-induced COX-2 mRNA expression, in words [3]: inhibits LPS-induced COX-2 mRNA expression

COc1ccc(-c2cc(=O)c3c(O)c(OC)c(OC)c(OC)c3o2)cc1O [Compound K, 5,3′-dihydroxy-6,7,8,4′-tetramethoxyflavone]
Inhibition of iNOS expression (Western blot), in words [4]: most potent inhibitor of iNOS expression
